Experimental data taken from US20220023552A1, “KIT FOR INHALED CHEMOTHERAPY, AND TREATMENT OF LUNG CANCER WITH SAID KIT” (UNIVERSITÉ LIBRE DE BRUXELLES, priority 2018, published 2022).

What was measured:
[1] = test system: M109-HiFR-LUC2 cells; assay: tumor growth by in vivo bioluminescence in orthotopic lung cancer mice model; design: species or system BALB/c mice; conditions: Example 4; p<0.05 for combination, p>0.05 for cisplatin IV
Protocol: The orthotopic intrapulmonary implantation procedure was performed using an adaption of the protocol described previously (Wauthoz et al., Nanomedicine 2015). Briefly, under anesthesia, 6 to 7-week-old BALB/c mice were grafted with 1.4 million M109-HiFR-LUC2 cells in 20 μL of a 50:50 v/v mix of folate-free RPMI/Matrigel® injected intercostally after incision of the skin and dissection of subcutaneous muscles. The different tissue incisions were stitched with a 3-0 silk (Ethicon®, St-Stevens-Woluwe, Belgium). The mice were closely observed until complete recovery. The therapeutic response of the M109 model to cisplatin was evaluated by in vivo optical imaging (bioluminescence) and survival analysis. Bioluminescence is directly proportional to the number of living M109-HiFR-LUC2 tumor cells. […]
The protocol described in example 3 has been reproduced, except that survival rates were also determined (no euthanasia on day 19 and no ex vivo bioluminescence analysis), the treatment started on day 6 according to the scheme table 3 below and that three groups of 4-15 mice were compared: […]
The protocol described in example 3 has been reproduced, except that survival rates were also determined (no euthanasia on day 19 and no ex vivo bioluminescence analysis), the treatment started on day 3 according to the scheme table 5 below and three groups of 8-16 mice were compared: […]

[2] = test system: M109-HiFR-LUC2 cells; assay: ex vivo bioluminescence analysis of tumor localization (resected lungs vs chest cavity); assay type: in vivo, BALB/c mice; conditions: Example 3 additional experiment, day 19 post engraftment
Protocol: Briefly, under anesthesia, 6 to 7-week-old BALB/c mice were grafted with 1.4 million M109-HiFR-LUC2 cells in 20 μL of a 50:50 v/v mix of folate-free RPMI/Matrigel® injected intercostally after incision of the skin and dissection of subcutaneous muscles. The different tissue incisions were stitched with a 3-0 silk (Ethicon®, St-Stevens-Woluwe, Belgium). The mice were closely observed until complete recovery. The therapeutic response of the M109 model to cisplatin was evaluated by in vivo optical imaging (bioluminescence) and survival analysis. Bioluminescence is directly proportional to the number of living M109-HiFR-LUC2 tumor cells. Bioluminescence was performed up to day 19 post tumor cell engraftment using a Photonlmager RT (Biospace Lab, France) using the conventional supplier's protocol. Mice were weighted three times a week and sacrificed if their weight loss exceeded 20% from the beginning of the experiment or 15% from the last measurement or if they were suffocating. In these cases, the mouse death was notified as occurred the day after.
An additional experiment was performed evaluating cisplatin DPI according to example 1 vs cisplatin IV on the same lung cancer mice model. […]

[3] = geometrical particle size distribution (PSD) by laser diffraction; assay type: physicochemical; conditions: mean ± SD, n = 3
Protocol: The geometrical PSD of bulk cisplatin, cisplatin microparticles from the size-reduction process, and cisplatin dry powder formulation, was measured as suspended and individualized particles. This was done using a Mastersizer 3000 laser diffractometer (Malvern Instruments Ltd., Worcestershire, UK) connected to a Hydro MV dispenser equipped with a 40 W ultrasonic probe (Malvern Instruments Ltd.). Measurements of bulk cisplatin and aliquots of cisplatin microparticles from the size-reduction process were performed in cisplatin-saturated isopropanol. […] The geometrical PSD of bulk cisplatin, cisplatin microparticles from the size-reduction process, and cisplatin dry powder formulation, was measured as suspended and individualized particles as described in the Example 1 and are presented in table 2.

[4] = Table 1, materials of Example 1
[5] = Table 2, materials of Example 2

Compound	significance of the decrease in tumor growth versus untreated control (1-way ANOVA) [1]	tumor growth in the chest, cisplatin IV compared with cisplatin DPI (FIG. 3) ([2]; chest cavity = loco-regional metastases)	tumor growth in the lungs, cisplatin IV compared with cisplatin DPI (FIG. 3) ([2]; resected lungs = primary lung tumors)	D50 (volume median diameter) [3, 4] [μm]	D[4,3] (volume mean diameter) [3, 4] [μm]	D50 (volume median diameter) [3, 5] [μm]	D[4,3] (volume mean diameter) [3, 5] [μm]
N.N.[Cl][Pt][Cl] [cisplatin IV, cisplatin]	not	decrease of tumor growth in the chest	similar				
N.N.[Cl][Pt][Cl] [Raw cisplatin, cisplatin]				16.5 ± 3.6	18.9 ± 4.3	6.3 ± 0.1	7.1 ± 0.2
